Reference: patent publication US20250195523A1, “ORGANIC MOLECULES FOR TREATING MYELIN PATHOLOGIES” (ICM (INSTITUT DU CERVEAU ET DE LA MOELLE ÉPINIÈRE), priority 2022, published 2025)

Columns and labels:
[1] = test system: cerebellar slices explants; test: Ex vivo cerebellar organotypic explant culture, differentiation and myelination index; assay type: cell-based, mice; conditions: 750 nM, three days (7-10 DIV)
Experimental: We prepared cerebellar organotypic cultures from newborn (P0) mice. Cerebellar parasagittal slices (350 μm thick) were cut on a McIlwain tissue chopper and transferred onto 30 mm diameter Millipore culture inserts with […] (Millicell, Millipore). Slices were maintained in incubators at 37° C., under a humidified atmosphere containing 5% CO2 in six-well-plates containing 1 mL of slice culture media. This medium includes basal medium eagle (Invitrogen), 25% complete HBSS, 27 mM D-glucose, 100 U/mL penicillin/streptomycin, 1 mM glutamine (Sigma) and 5% horse serum (New Zealand origin, heat inactivated; Invitrogen). Medium was renewed every 2 days until 7 DIV, reaching the appropriate culture periods to study OPC differentiation and myelination. […] Slices were collected and fixed for 1 h at RT in PBS-4% paraformaldehyde, washed 3 times in PBS, and incubated 20 min at 4° C. in Clark's solution (95% ethanol/5% acetic acid), then washed 3 times in PBS 1×.
For ex-vivo cerebellar slices, slices were incubated 20 min at 4° C. in Clark's solution (95% ethanol/5% acetic acid), then washed 3 times in PBS 1×. Then, sections were incubated for 1 hour in a blocking buffer (0.2% Triton X-100/4% bovine serum albumin/4% donkey serum/PBS). Slices were incubated for 2 hours with the following primary antibodies at RT: Goat anti-Sox10 (1:100, R&D Systems); Rabbit anti-Calbindin (1:1000; Swant); Rat anti-MBP (1:200; Abcam); Mouse anti-CC1 (IgG2b; 1:100, Calbiochem). Then slices were washed 3 times in PBS/0.1% Triton X-100 and incubated in blocking buffer (dark, RT) for 2 hours with appropriate secondary antibodies conjugated with Alexa Fluor 488, 594 and 647 (1:1000; Molecular Probes or Thermo Fisher) and Dapi (1:5000 from working solution at 5 mg/ml; Life Technologies; D1306). Finally, slices were washed 3 times in PBS/0.1% Triton X-100 after incubation and mounted in Fluoromount-G (SouthernBiotech).
Then, we firstly performed a simpler and faster experimental model using cerebellar slices explants to identify the best drugs having pro-oligodendrogenenic and pro-myelinating activities in this ex vivo model, to be used in the in vivo analyses. Indeed, this model allowed us to better assess later aspects of OL maturation, myelination, and cytotoxicity in a richer cellular system, also containing immune cells (microglia/macrophages) that are known to influence oligodendrogenesis and (re) myelination. In this model, the start of myelination takes place after 7 days in culture (FIG. 3A). […] We then analyzed the effect in terms of OL numbers (CC1+/Sox10+ cells) and myelination (MBP labeling on CaBP+ Purkinje cell axons), by immunodetection of all four markers in the same sections. We calculated the differentiation index as the ratio of Sox10+ cells being CC1+, and the myelination index as the ratio CaBP+ axons being MBP+. […] On the one hand, we used the adult focal de/remyelination induced by intracerebral injection of […] (LPC) mimicking de/remyelination of MS, and on the other hand, the neonatal chronic hypoxia model, mimicking PTB hypomyelination.

[2] = test system: neonatal chronic hypoxia model (dorsal SVZ and cortex); test: Neonatal chronic hypoxia model of preterm birth brain injury, intranasal administration; assay type: in vivo, mice
Experimental: Mice aged P1 were placed in a hypoxic rearing chamber maintaining at 9.5-10.5% O2 concentration by displacement with N2. Hypoxia began at the postnatal day 3 (P3) for 8 days until P11. A separate group was maintained in a normal atmosphere (normoxic group). […] Mucus was first permeabilized by the use of type IV hyaluronidase, then 10 μl of drugs (Sigma) was administered 3 times, 1 time a day from P11 to P13 (starting at the end of the hypoxic period, then every 24 hours) in sterile PBS (control). For analysis of proliferation, mice were injected with EdU (Sigma) in order to label cells in an actively cycling state in S-phase, then perfused 1 h later at P13. For analysis of OL maturation, mice were perfused at P19. All perfusions were performed with Ringer, followed by ice cold solution of 4% paraformaldehyde (Thermo Fisher). Mice were sacrificed at P13 or P19 by an intraperitoneal overdose of pentobarbital followed by perfusion with Ringer's lactate solution and 4% paraformaldehyde (PFA; Sigma) dissolved in 0.1M phosphate buffer (PB; pH 7.4). Brains were removed and post-fixed for 24 hours at 4° C. in 4% PFA and sectioned in 50 μm thick coronal serial sections, free floating sections.
For in vivo-cryosections (50 μm) of chronic hypoxia, antigen retrieval was performed for 20 min in a citrate buffer (ph 6.0) at 80° C., then cooled for 20 min at room temperature and washed in 0.1M PB. The following antibody were used for immunohistochemical procedures: Mouse anti-APC (CC1 IgG2B; 1:100, calbiochem); Mouse anti-Olig2 (1:1500; Millipore); Rabbit anti-Olig2 (1:400; Millipore); Rabbit anti-GSTpi (1:1000, Enzo). Blocking was performed in a TNB buffer (0.1 M PB; 0.05% Casein; 0.25% Bovine Serum Albumin; 0.25% TopBlock) with 0.4% triton-X (TNB-Tx). Sections were incubated overnight at 4° C. with gentle shaking. Following extensive washing in 0.1 M PB with 0.4% triton-X (PB-Tx), sections were incubated with appropriate secondary antibodies conjugated with Alexa Fluor 488 or 555 (1:500; Jackson or Invitrogen) for 2 hrs at room temperature. Sections were washed and counterstained with Dapi (1:5000 from a working solution at 5 mg/ml; Life Technologies; D1306). Revelation of EdU was done using Click-it™, EdU cell proliferation Kit for imaging, Alexa fluor™ 647 dye (Thermo Fisher scientific).
Chronic hypoxia is a well-established model of very preterm birth, that induces a diffuse perinatal brain lesion by housing the pups at 10% oxygen from P3 to P11 (FIG. 5A). This neonatal hypoxia induces a marginal cell death including neuronal and glial cells along with delay into forebrain development including OL maturation that appear to persist in adulthood. […] We next assessed the impact on OL differentiation by immunodetection of OLs with CC1 antibody and oligodendroglial cells by Olig2.

CCCCOc1ccc(C(=O)CCN2CCCCC2)cc1.Cl [Sm5, Dyclonine hydrochloride]
differentiation index (CC1+/Sox10+ OLs number) ([1]; compared to negative controls, FIG. 3B): increased differentiation index
myelination process (MBP+/CaBP+), myelination index ([1]; compared to vehicle, FIG. 3C): robust increase
EdU+ cell density within the subventricular zone (proliferation) ([2]; P13, intranasal P11 to P13, sm5 at 5 μg per g, sm11 at 0.5 μg per g, versus hypoxia, FIG. 6A): no marked additive effects
proportion of Olig2+ cells labeled with EdU (proliferative OPCs, dorsal SVZ) ([2]; P13, intranasal P11 to P13, versus hypoxia, FIG. 6B): significant increase
myelinating OLs (GSTπ+ cells), GSTπ expression ([2]; P19, cortex, intranasal P11 to P13, after hypoxia, FIG. 5D): complete recovery
OL differentiation, ratio of Olig2+ cells expressing CC1 ([2]; P19, cortex, intranasal P11 to P13, compared to hypoxic and normoxic groups, FIG. 5C): increased OL differentiation beyond the normoxic and sm11 groups
density of oligodendroglial cells (Olig2+ cells) in the cortex ([2]; P19, intranasal P11 to P13, FIG. 5B): no major effect
